Data on one substance can be found in patent US11370841B2, “Methods of treating fibroblast growth factor 19-mediated cancers and tumors” (NGM Biopharmaceuticals, Inc., priority 2016, dated 2022).

Series [1] has as its system FGF19-mediated HCC. Nature of the series: Anti-IL-6 treatment in Mdr2-/- mice expressing AAV-FGF19. The following applies: prolonged expression of FGF19. Format: in vivo. The method, then: Blood parameters. […] Serum insulin was assessed with ELISA kits from ALPCO. […] All assays were performed according to the manufacturers' instructions.
(§1) Histology and immunohistochemistry. […] Hematoxylin and eosin staining was performed using standard methods. […] When indicated, sections were counterstained with hematoxylin.
Anti-IL-6 treatment in Mdr2^−/− mice. […] Anti-IL-6 treatment started 14 weeks after AAV injection. Mice were dosed with anti-mouse IL-6 antibody (Bio-X-Cell) or an isotype control antibody (Bio-X-Cell) once weekly i.p. at 10 mg/kg for a total of 10 doses. Mice were euthanized 24 weeks post-AAV administration for liver tumor assessment. When indicated, Mdr2^−/− mice injected with AAV-GFP serve as controls for evaluating serum levels of liver enzymes.

Series [2] deals with FGF19-mediated HCC. In words: Tumorigenicity study in db/db mice (AAV-SOCS3, tofacitinib). Format: in vivo. The method, then: (§2) Blood parameters. Blood was collected from tail vein in un-anesthetized animals using microvette serum gel tubes (Sarstedt) for measurements of glucose, insulin, ALT, AST, ALP, bile acids, and FGF19 concentrations. Serum samples were prepared by centrifugation at 4° C. for 10 minutes at 6000 g after clotting at room temperature for 30 minutes. For HbA1c measurements, whole blood was collected after euthanasia by cardiac puncture into EDTA-tubes and quickly inverted multiple times. HbA1c (from whole blood samples) and liver enzyme (from serum samples) levels were measured on Cobas Integra 400 Clinical Analyzer (Roche Diagnostics). Serum FGF19 level was determined by FGF19 enzyme-linked immunosorbent assays (ELISA) (Biovendor). Serum insulin was assessed with ELISA kits from ALPCO. Concentrations of total bile acids in serum were determined using a 3β-hydroxysteroid dehydrogenase method (Diazyme). All assays were performed according to the manufacturers' instructions.
(§3) Histology and immunohistochemistry. Livers were fixed in 10% neutral-buffered formalin and embedded in paraffin. 5 μm sections were deparaffinized in xylenes, rehydrated sequentially in graded ethanol (100%, 95%, 80%, 70%, 50%, 2 minutes each). Hematoxylin and eosin staining was performed using standard methods. For immunohistochemical studies, liver sections were subjected to antigen retrieval in a citrate-based Antigen Unmasking Solution (Vector Laboratories), and incubated for 30 minutes with 3% H2O2 at room temperature to block endogenous peroxidase activity. Sections were stained with primary antibodies against glutamine synthetase (Thermo Fisher), BrdU, PCNA, or STAT3 in PBS containing 10% goat serum. Biotinylated secondary antibodies, ABC-HRP reagent (Vectastain ABC kit, #PK-6100, Vector Laboratories) and di-amine-benzidine (DAB) colorimetric peroxidase substrate (#SK-4100, Vector Laboratories) were used for detection. When indicated, sections were counterstained with hematoxylin. Digital imaging microscopy was performed using a Leica DM4000 microscope equipped with DFC500 camera and a scanning platform (Leica). Images for the entire liver section were acquired by stitching 70-96 fields together using Surveyor program for morphometric analysis. Glutamine synthetase-positive tumor areas were quantified using Measure/Count/Area tool from ImagePro software.
Tumorigenicity study in db/db mice. 11 to 12 week old db/db mice received a single intravenous dose of AAV containing either FGF19 or a control gene (green fluorescent protein). Body weight and blood glucose were monitored. […] Mice were euthanized 24 weeks post-AAV administration and examined for liver tumor formation by gross appearance and histology.

For the next series, the system named is hepatic mRNA levels. In words: Hepatic gene expression in FGF19-treated db/db mice (qRT-PCR). (In general: In qPCR the cycle at which signal appears reflects the starting amount.)
Series [3] has as its system FGF19-mediated hepatocellular carcinoma. In words: AAV-FGF19 tumorigenicity and metabolic study in Stat3f/f and Stat3ΔHep mice. As to conditions: for Reduction in hepatic mRNA levels of Cyp7a1 / Reduction in hepatic mRNA levels of Cyp8b: AAV-expressed FGF19, 12 months. The method, then: Hepatocyte-specific Stat3 deletion. […] Stat3^f/f mice injected with AAV-TBG-Cre alone served as Stat3^ΔHep controls. Stat3^f/f mice were used as wild type controls. AAV-TBG-Cre drives Cre recombinase expression under TBG promoter, which allows hepatocyte-specific expression.
52 weeks after AAV injection, mice were euthanized and examined for liver tumor formation. The maximum diameter of liver tumor nodules in each mouse was measured with a caliper and total numbers of tumor nodules per liver were recorded. Livers were weighed and collected for histological examination or gene expression analysis.
Glucose and body composition. Blood concentrations of ad libitum fed glucose were measured in conscious animals from a hand-held glucometer (Accu-check, Roche Diagnostics) using tail vein blood. Body weight and body composition (EcoMRI whole body composition analyzer) were measured at designated times. Mice were euthanized 52 weeks post-AAV administration. Macroscopic liver tumors were counted and the maximal diameter of the tumors recorded.
Gene expression analysis.
as §2, §3

The test system of the next series is hepatocytes. Nature of the series: In vivo BrdU incorporation (osmotic pump, 6 days). On the set-up: species or system mice. The protocol: In vivo BrdU incorporation. For surgical implant, mice were anesthetized with isoflurane, and osmotic pumps (#1002, Alzet) releasing 8.5 mg/kg/day 5-bromo-2-deoxyuridine (BrdU, Sigma) and 0.4 mg/kg/day FGF19 protein were implanted subcutaneously on the back on day 1. Incisions were closed with surgical clippers and 3-0 silk suture. Mice were euthanized on day 6, and serum and livers were collected for exposure and BrdU incorporation analysis.
as §1
Flow cytometry. For quantification of BrdU incorporation by flow cytometry, livers were minced in RPMI media containing 0.1% collagenase for 30 minutes at 37° C. and passed through 70 μm filter. […]. Cells were analyzed on a BD Caliper flow cytometer and data were collected using CellQuest software and analyzed using Flowjo program.
To determine the direct effect of FGF19 on hepatocyte proliferation in a cell autonomous manner, the proliferative effects of FGF19 in vivo and in isolated hepatocytes were compared by assessing the incorporation of 5-bromo-2-deoxyuridine (BrdU) into newly synthesized DNA. FGF19 was administered at a concentration of 0.4 mg/kg/day and BrdU was administered at 8.5 mg/kg/day. After being administered to mice for six days through an osmotic pump, recombinant FGF19 protein induced incorporation of BrdU into hepatocytes as evidenced by immunohistochemical staining (with hematoxylin) and by flow cytometry analysis (hepatocytes were stained with 7-AAD and anti-BrdU-APC) (FIGS. 2A and 2B). […] Plasma concentrations of FGF19 were 5.2±1.2 ng/mL at the end of the study (FIG. 2C).

A further series has as its system FGF19-induced HCC. Nature of the series: Tumorigenicity study in IL-6-deficient mice. Format: in vivo. As to conditions: both Il6+/+ and Il6-/- mice, AAV-expressed FGF19. The protocol: as §1
Tumorigenicity study in IL-6-deficient mice. Il6^−/− mice were backcrossed to C57BL/6 mice for at least nine generations. Age and gender-matched wild type C57BL6 mice were used as Il6^+/+ controls. […] Body weight, body composition, and blood glucose were measured at designated times. Mice were euthanized 52 weeks post-AAV administration for liver tumor assessment.

The mark [4] stands for this setting: FGF19 protein 1 mg/kg i.p., 2 hours.
Where [5] appears, read: Stat3f/f mice, AAV-expressed FGF19.

Consider “FGF19: Fibroblast growth factor 19, mature human 194 amino acid polypeptide (SEQ ID NO: 1); recombinant protein or AAV-expressed”, for which the Liver tumor formation result with FGF19-mediated HCC [1] is reported as “induced liver tumor formation”. Further, the HbA1c entry with FGF19-mediated HCC [2] (AAV-expressed FGF19, in the absence or presence of SOCS3) is “normalized”. Moreover, in the series on FGF19-mediated HCC [2] (AAV-expressed FGF19, irrespective of tofacitinib treatment), the Blood glucose levels entry was “normalized”. In the series with hepatic mRNA levels (setting [4]), the “Hepatic mRNA levels of IL-6” value was “increased significantly”; the “RNA levels of IL-11, LIF, OSM, CNTF and CTF1” value was “remained unchanged or undetectable”. Besides, the “Hepatic Cyp7a1 mRNAs” value in the series on hepatic mRNA levels (acute FGF19 treatment) was “efficiently suppressed”. For the same substance, in series [3] (setting [5]), the Body weight entry is on record as “weight-lowering” and the Glucose result is listed as “glucose-lowering”. Besides, in series [3] (Stat3f/f mice), the “Reduction in hepatic mRNA levels of Cyp7a1” value was found to be 77% and the “Reduction in hepatic mRNA levels of Cyp8b” value was 95%. Besides, in series [3] (Stat3ΔHep mice), the “Reduction in hepatic mRNA levels of Cyp7a1” value worked out at 87% and the “Reduction in hepatic mRNA levels of Cyp8b” value is listed as 88%. The “BrdU-positive cells in liver (flow cytometry)” value with hepatocytes (20 μg per mouse per day (0.4 mg/kg/day) by osmotic pump, six days) was 9.2+1.5%. The “PCNA and Ki-67 expression” value in the series on hepatocytes (FGF19-treated mice, osmotic pump, six days) is listed as “higher”. For the same substance, the “Plasma concentrations of FGF19 at the end of the study” value in the series on hepatocytes (osmotic pump 0.4 mg/kg/day, day 6) came to 5.2 ± 1.2 ng/mL. In the series on FGF19-induced HCC, the Body fat composition entry is reported as “efficiently reduced”.
